Source: the supplement of paper PMC4862054

What was measured:
Conditions in all cases: incubation time: 72 h
MDA-MB-231 = assay: drug sensitivity score (DSS), CellTox Green (DSS (AUC-based score)); higher = stronger drug effect (viability inhibition or cytotoxicity); extreme values may be limits of the assay
Method in brief: (§1)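 Breast cancer cell lines (20 µl suspension) were seeded into 384-well plates holding compound at 5 concentrations in 10-fold steps over a compound-specific 10,000-fold range, then incubated 72 h. CellTox Green fluorescence (485/520 nm) was read first, then CellTiter-Glo luminescence after 10 min at room temperature. Each plate was normalised to 0.1 % DMSO and a positive kill control. The drug sensitivity score was calculated from the area under the fitted dose-response curve.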

MDA-MB-468 [1] = assay: as above
Method in brief: as §1

MDA-MB-436 = assay: as above
Method in brief: as §1

HCC1143 = assay: as above
Method in brief: as §1

HCC1937 [2] = assay: as above
Method in brief: as §1

MFM-223 [3] = assay: as above
Method in brief: as §1

DU-4475 = assay: as above
Method in brief: as §1

CAL-85-1 [4] = assay: as above
Method in brief: as §1

HDQ-P1 [5] = assay: as above
Method in brief: as §1

CAL-120 = assay: as above
Method in brief: as §1

CAL-148 = assay: as above
Method in brief: as §1

MCF-10A = assay: as above
Method in brief: as §1

Hs578T = assay: as above
Method in brief: as §1

MDA-MB-453 = assay: as above
Method in brief: as §1

HCC1599 [6] = assay: as above
Method in brief: as §1

BT-474 = assay: as above
Method in brief: as §1

BT-549 = assay: as above
Method in brief: as §1

CAL-51 [7] = assay: as above
Method in brief: as §1

MDA-MB-468 [8] = assay: normalised viability (% of control), CellTiter-Blue; higher = more viable cells (about 100 = DMSO control)
Method in brief: (§2)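 Plates were quality-checked by Z'-factor and normalised to vehicle (100) and a positive kill control (0). The underlying assay incubated breast cancer cell lines for 72 h on 384-well plates with compound, then added 2.5 µl CellTiter-Blue for 2 h at 37 °C and read at 560/590 nm. The value is normalised viability at a single listed concentration of the series.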

HCC1937 [9] = assay: as above
Method in brief: as §2

MFM-223 [10] = assay: as above
Method in brief: as §2

CAL-85-1 [11] = assay: as above
Method in brief: as §2

HDQ-P1 [12] = assay: as above
Method in brief: as §2

HCC1599 [13] = assay: as above
Method in brief: as §2

CAL-51 [14] = assay: as above
Method in brief: as §2

Row | Structure (SMILES) | drug sensitivity score (MDA-MB-231) | drug sensitivity score (MDA-MB-468 [1]) | drug sensitivity score (MDA-MB-436) | drug sensitivity score (HCC1143) | drug sensitivity score (HCC1937 [2]) | drug sensitivity score (MFM-223 [3]) | drug sensitivity score (DU-4475) | drug sensitivity score (CAL-85-1 [4]) | drug sensitivity score (HDQ-P1 [5]) | drug sensitivity score (CAL-120) | drug sensitivity score (CAL-148) | drug sensitivity score (MCF-10A) | drug sensitivity score (Hs578T) | drug sensitivity score (MDA-MB-453) | drug sensitivity score (HCC1599 [6]) | drug sensitivity score (BT-474) | drug sensitivity score (BT-549) | drug sensitivity score (CAL-51 [7]) | normalised viability (MDA-MB-468 [8]; 10 nM) | normalised viability (MDA-MB-468 [8]; 1000 nM) | normalised viability (MDA-MB-468 [8]; 10000 nM) | normalised viability (HCC1937 [9]; 10 nM) | normalised viability (HCC1937 [9]; 1000 nM) | normalised viability (HCC1937 [9]; 10000 nM) | normalised viability (MFM-223 [10]; 10 nM) | normalised viability (MFM-223 [10]; 1000 nM) | normalised viability (MFM-223 [10]; 10000 nM) | normalised viability (CAL-85-1 [11]; 3 nM) | normalised viability (CAL-85-1 [11]; 30 nM) | normalised viability (CAL-85-1 [11]; 100 nM) | normalised viability (HDQ-P1 [12]; 3 nM) | normalised viability (HDQ-P1 [12]; 30 nM) | normalised viability (HDQ-P1 [12]; 100 nM) | normalised viability (HCC1599 [13]; 10 nM) | normalised viability (HCC1599 [13]; 1000 nM) | normalised viability (HCC1599 [13]; 10000 nM) | normalised viability (CAL-51 [14]; 3 nM) | normalised viability (CAL-51 [14]; 30 nM) | normalised viability (CAL-51 [14]; 100 nM)
1 | CN[C@@H]1C[C@H]2O[C@@](C)([C@@H]1OC)n1c3ccccc3c3c4c(c5c6ccccc6n2c5c31)C(=O)N[C@H]4O [UCN-01] | 19 | 0 | 0 | 8.74 | 0 | 6.67 | 4.48 | 20.2 | 14.7 | 9.11 | 3.4 | 21.6 | 17.7 | 1.04 | 0 | 7.59 | 9.46 | 17 | 126% | 7.27% | 6.64% | 71.7% | 25.6% | 7.84% | 103% | 42.1% | 13.5% | 87.4% | 73.6% | 60.4% | 82.2% | 66.8% | 39.6% | 81.1% | 48.3% | 21.2% | 99.7% | 87.2% | 62.6%
2 | CCC1=C[C@@H]2CN(C1)Cc1c([nH]c3ccccc13)[C@@](C(=O)OC)(c1cc3c(cc1OC)N(C)[C@H]1[C@@](O)(C(=O)OC)[C@H](OC(C)=O)[C@]4(CC)C=CCN5CC[C@]31[C@@H]54)C2 [Vinorelbine] | 18.1 | 5.08 | 3.27 | 0 | 0 | 12.7 | 0 | 11.7 | 0 | 1.84 | 9.47 | 23.7 | 23.3 | 0 | 2.9 | 10 | 4.21 | 24.9 | 104% | 53.6% | 33.8% | 83.2% | 14.7% | 19.5% | 95.5% | 44% | 29.1% | 94.2% | 60.3% | 34.5% | 95.3% | 81.2% | 65% | 84.2% | 44.4% | 53.5% | 110% | 91.7% | 58.1%
3 | CCC1(c2ccc(N)cc2)CCC(=O)NC1=O (configuration not stated) [Aminoglutethimide] | 0 | 0 | 0 | 0 | 0 | 0 | 0 | 0 | 0 | 0 | 0 | 0 | 0 | 0 | 0 | 0 | 0 | 0 | 97.3% | 103% | 110% | 93.3% | 92.9% | 83.4% | 97% | 102% | 97.5% | 104% | 89.6% | 103% | 84.8% | 99.2% | 103% | 90.8% | 92.7% | 95.3% | 87.2% | 92.6% | 92.8%
